The values below come from ChEMBL document CHEMBL5729030, “Compound as selective JAK inhibitor, and salt and therapeutic use thereof” (2022).

The target of assay [1] is T1, Tyrosine-protein kinase JAK3 (Homo sapiens, UniProt P52333).
T1 sequence (P52333 whole entry): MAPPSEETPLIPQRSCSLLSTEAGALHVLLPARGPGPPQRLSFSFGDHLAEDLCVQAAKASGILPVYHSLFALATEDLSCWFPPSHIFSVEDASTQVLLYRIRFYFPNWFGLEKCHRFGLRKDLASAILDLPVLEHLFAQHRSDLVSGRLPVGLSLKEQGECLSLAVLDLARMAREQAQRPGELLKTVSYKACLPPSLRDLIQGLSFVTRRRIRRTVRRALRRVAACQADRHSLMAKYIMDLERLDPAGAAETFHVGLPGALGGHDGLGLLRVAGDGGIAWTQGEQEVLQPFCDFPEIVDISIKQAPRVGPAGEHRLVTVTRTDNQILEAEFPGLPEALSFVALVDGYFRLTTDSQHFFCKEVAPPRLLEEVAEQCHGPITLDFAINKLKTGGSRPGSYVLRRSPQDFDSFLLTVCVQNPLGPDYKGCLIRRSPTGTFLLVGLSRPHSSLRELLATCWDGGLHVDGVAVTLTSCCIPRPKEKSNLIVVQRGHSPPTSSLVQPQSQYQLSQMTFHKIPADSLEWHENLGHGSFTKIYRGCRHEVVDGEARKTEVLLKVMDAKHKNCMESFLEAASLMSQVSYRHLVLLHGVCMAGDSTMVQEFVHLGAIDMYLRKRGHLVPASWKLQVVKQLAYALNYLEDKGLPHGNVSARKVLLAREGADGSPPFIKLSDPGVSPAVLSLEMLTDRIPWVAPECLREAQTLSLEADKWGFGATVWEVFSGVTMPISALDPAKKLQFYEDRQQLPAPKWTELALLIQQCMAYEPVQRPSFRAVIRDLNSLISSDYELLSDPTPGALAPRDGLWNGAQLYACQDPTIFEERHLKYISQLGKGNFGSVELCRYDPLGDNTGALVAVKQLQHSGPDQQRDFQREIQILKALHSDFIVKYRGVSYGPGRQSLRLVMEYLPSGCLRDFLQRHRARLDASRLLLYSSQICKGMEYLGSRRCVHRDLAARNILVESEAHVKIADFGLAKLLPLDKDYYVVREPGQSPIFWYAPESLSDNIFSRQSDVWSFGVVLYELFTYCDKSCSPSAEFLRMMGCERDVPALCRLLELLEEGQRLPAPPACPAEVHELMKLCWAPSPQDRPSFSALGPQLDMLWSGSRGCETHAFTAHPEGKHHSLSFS
As to the kind of experiment: (§1) Inhibition of JAK: The study of the effect of compounds on the activity of purified recombinant JAK was performed by studying the inhibitory activity of the compounds on JAK from the enzymatic level. The experimental principle is to use a luminescence kinase assay to detect the ADP content produced by the reaction of JAK with the substrate Poly (4:1 Glu, Tyr) peptide: after ADP is converted to ATP, ATP can act as a substrate for the Ultra-Glo luciferase catalytic reaction, producing an optical signal. The luminescence signal is positively correlated with the amount of ADP and kinase activity. Therefore, the inhibitory effect of the compounds on the recombinant JAK was determined by observing the luminescence signal produced by the reaction of JAK and the substrate, and was expressed by IC50.

The target of assay [2] is Tyrosine-protein kinase JAK2 (Homo sapiens, UniProt O60674). Described as §1.
Chain of Tyrosine-protein kinase JAK2 (O60674 whole entry): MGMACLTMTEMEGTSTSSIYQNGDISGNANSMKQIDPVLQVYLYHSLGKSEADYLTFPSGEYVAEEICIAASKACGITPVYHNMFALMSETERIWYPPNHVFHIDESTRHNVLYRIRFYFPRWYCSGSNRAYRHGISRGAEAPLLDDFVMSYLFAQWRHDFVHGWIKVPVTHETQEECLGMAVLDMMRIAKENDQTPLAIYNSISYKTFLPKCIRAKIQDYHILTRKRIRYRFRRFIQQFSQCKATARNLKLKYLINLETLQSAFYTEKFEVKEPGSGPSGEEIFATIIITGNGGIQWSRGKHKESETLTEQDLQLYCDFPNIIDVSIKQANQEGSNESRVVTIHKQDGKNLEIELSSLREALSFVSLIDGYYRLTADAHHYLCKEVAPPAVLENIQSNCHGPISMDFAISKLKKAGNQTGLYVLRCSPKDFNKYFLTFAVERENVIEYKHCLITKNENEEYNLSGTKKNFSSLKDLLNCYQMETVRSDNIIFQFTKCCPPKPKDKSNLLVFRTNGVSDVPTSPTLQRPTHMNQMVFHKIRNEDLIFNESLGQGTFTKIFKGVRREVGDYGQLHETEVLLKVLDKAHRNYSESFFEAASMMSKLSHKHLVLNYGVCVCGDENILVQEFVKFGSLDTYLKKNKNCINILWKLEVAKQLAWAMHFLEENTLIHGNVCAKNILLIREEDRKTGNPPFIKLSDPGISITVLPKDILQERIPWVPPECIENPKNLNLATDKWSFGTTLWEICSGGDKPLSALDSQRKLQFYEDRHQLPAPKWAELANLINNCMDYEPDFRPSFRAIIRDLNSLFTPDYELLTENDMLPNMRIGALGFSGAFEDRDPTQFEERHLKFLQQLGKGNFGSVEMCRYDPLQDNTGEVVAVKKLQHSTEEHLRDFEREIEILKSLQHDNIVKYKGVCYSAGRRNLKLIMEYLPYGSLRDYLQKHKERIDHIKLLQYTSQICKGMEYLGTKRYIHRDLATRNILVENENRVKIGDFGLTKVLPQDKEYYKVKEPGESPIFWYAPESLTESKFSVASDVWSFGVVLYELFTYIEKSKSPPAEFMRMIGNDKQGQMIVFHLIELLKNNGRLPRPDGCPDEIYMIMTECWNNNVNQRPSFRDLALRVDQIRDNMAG

Bounds are passed on as bounds.

The IC50 is the concentration needed to halve the response being measured. Consider `CS(=O)(=O)C1CN(Cc2ccc(-c3cccn4nc(NC(=O)C5CC5)nc34)cc2F)C1`, for which the IC50 in assay [1] and in assay [2] was greater than 50 nM in each case.

Consider `CS(=O)(=O)C1CN(Cc2ccc(-c3cccc4nc(NC(=O)C5CC5)nn34)cc2F)C1`, for which the IC50 in assay [1] and in assay [2] was greater than 50 nM each time.
